The values that follow come from patent US20110305707A1, “COMPOSITIONS AND METHODS FOR TREATING CANCER” (THE CLEVELAND CLINIC FOUNDATION, priority 2010, published 2011).

Series [1] concerns F10L_B16 Melanoma Tumor cells. Description: F10L_B16 melanoma in apoA1-KO mice given human ApoA1 or saline throughout the study (xenogen imaging, survival). The conditions noted are these: vs normal saline. The series is classed as in vivo. How it is done:
In another part of this Example, human ApoA1 or normal saline (control) was given to apoA1-KO mice throughout duration of the study following the dosing schedule of 15 mg s.c. QOD. 10^5 F10L_B16 Melanoma Tumor cells were injected subcutaneously into the dorsum of the mice. Total tumor burden and metastases were quantified by xenogen imaging. […] Images of the mice 16 days post tumor injection are shown in FIG. 11, which show much greater tumor growth in the saline treated mice. Images of the mice 21 days post tumor injection are shown in FIG. 12, which show much greater tumor growth in the saline treated mice.

The test system of the next series is malignant melanoma. Description: Malignant melanoma animal model, apoA1 given as therapy after tumor growth is established. The series is classed as in vivo, mice. On the procedure: In another part of this Example, the impact of giving apoA1 as a therapy is evaluated after the tumor growth is established and metastases are detectable. The same malignant melanoma animal model is employed. ApoA1 injections were started one week after tumor injection. […] In the insets for both 16A and 16B, note that apoA1 injections actually shrink peak tumor volume by ˜50% within 1-2 weeks of therapy. A similar ˜50% reduction in peak metastases burden is also noted in the apoA1 treated mice.
In similar experiments, ApoA2 was given in the same dosing strategy as apoA1 vs normal saline (S) control.

Series [2] is described as follows: Plasma levels of apoA1 after subcutaneous apoA1 injection every other day. It counts as in vivo, mice. The settings on record: apoA1 s.c. every other day, steady state, days 22-24. On the procedure:
In another part of this Example, apoA1 was injected subcutaneously into mice every other day and the plasma levels of apoA1 at steady state (shown in FIG. 9 for says 22-24) were monitored. […] This approximates the plasma levels of apoA1 in humans.

[3] abbreviates: 15 mg s.c. QOD throughout study.
[4] abbreviates: ApoA1 injections started one week after tumor injection.
[5] abbreviates: ApoA2 given in the same dosing strategy, vs normal saline.

On to apolipoprotein A-1 [ApoA1], for which, in series [1] (setting [3]), the “metastases formation (xenogen imaging)” value is “blocks tumor growth and metastases formation”; the “tumor growth (total tumor burden, xenogen imaging)” value was “blocks tumor growth”. Besides, the survival entry in series [1] (15 mg s.c. QOD) is listed as “much greater survival”. Besides, in the series with malignant melanoma (setting [4]), the metastases formation result is recorded as “dramatically reduced” and the overall tumor growth result was “dramatically reduced”. Further, in the series on malignant melanoma (setting [5]), the “potency at reducing cancer growth compared with ApoA2” value was “markedly more potent” and the “potency at reducing metastases formation compared with ApoA2” value is “markedly more potent”. In addition, the “reduction in peak metastases burden” value in the series with malignant melanoma (injections started one week after tumor injection) is on record as roughly 50%. Also, the “shrinkage of peak tumor volume” value with malignant melanoma (injections started one week after tumor injection, within 1-2 weeks of therapy) is roughly 50%. Further, the “plasma level of apoA1” value in series [2] fell in the range of 75 to 175 mg/dL.
